# Legend:
# [1] = target: Ba/F3-FGFR3-transfected cells (Homo sapiens, UniProt P22607); assay: Ba/F3-FGFR3 (minus IL3) cellular proliferation assay, Alamar Blue; type: cell-based; conditions: for BAF3-FGFR 3 (MIN IL3) 384 well pIC50: minus IL3, 384 well; for BAF3-FGFR 3 (MIN IL3) 96 well pIC50: minus IL3, 96 well
# Summary of the method: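 Proliferation read-out: Alamar Blue fluorescence (ex 540, em 590 nm) after 4 h with resazurin, following 24 h compound treatment of FGFR3-transfected Ba/F3 cells at 37 °C. Counterscreen run identically with 10 ng/ml murine IL3 added.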
# [2] = target: Ba/F3-KDR-transfected cells (Homo sapiens, UniProt P35968); assay: Ba/F3-KDR (minus IL3) cellular proliferation assay, Alamar Blue; type: cell-based; conditions: minus IL3
# Summary of the method: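 24 h compound exposure, Ba/F3-KDR cells, 20000/well (384-well) or 10000/well (96-well), 37 °C/5% CO2; resazurin 4 h; RFU ex540/em590. IL3 counterscreen: plus 10 ng/ml murine IL3.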
# [3] = target: T1, Ba/F3-Flt3-transfected cells (Homo sapiens, UniProt P36888, cells depend on it, form not given); assay: Ba/F3-Flt3 (minus IL3) cellular proliferation assay, Alamar Blue; type: cell-based; conditions: minus IL3
# T1 sequence (P36888 1-993): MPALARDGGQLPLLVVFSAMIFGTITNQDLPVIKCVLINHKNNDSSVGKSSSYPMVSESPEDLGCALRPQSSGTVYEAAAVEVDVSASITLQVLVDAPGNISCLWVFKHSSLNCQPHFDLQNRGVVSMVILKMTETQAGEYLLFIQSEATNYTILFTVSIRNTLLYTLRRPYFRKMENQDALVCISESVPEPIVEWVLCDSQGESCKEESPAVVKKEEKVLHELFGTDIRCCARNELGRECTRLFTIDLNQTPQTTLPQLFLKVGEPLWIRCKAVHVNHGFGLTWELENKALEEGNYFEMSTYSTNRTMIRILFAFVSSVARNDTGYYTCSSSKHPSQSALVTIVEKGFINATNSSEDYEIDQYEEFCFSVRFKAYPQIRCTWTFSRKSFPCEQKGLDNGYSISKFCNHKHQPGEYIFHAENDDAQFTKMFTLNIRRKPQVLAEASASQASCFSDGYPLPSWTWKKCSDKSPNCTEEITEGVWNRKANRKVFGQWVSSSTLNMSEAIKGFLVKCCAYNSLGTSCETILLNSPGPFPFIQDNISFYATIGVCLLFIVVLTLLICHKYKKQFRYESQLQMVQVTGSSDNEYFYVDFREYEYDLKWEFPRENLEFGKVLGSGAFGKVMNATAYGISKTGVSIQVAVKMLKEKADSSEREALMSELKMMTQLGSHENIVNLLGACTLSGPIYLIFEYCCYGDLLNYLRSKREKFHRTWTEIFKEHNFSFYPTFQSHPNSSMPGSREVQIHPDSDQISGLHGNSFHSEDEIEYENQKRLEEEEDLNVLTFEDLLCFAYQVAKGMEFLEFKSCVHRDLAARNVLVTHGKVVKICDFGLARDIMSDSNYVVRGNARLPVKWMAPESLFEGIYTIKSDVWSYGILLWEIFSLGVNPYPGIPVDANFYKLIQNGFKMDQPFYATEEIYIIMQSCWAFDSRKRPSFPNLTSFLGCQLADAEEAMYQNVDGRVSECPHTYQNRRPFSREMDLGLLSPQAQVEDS
# Sequence of Ba/F3-FGFR3-transfected cells (P22607 whole entry, change not shown): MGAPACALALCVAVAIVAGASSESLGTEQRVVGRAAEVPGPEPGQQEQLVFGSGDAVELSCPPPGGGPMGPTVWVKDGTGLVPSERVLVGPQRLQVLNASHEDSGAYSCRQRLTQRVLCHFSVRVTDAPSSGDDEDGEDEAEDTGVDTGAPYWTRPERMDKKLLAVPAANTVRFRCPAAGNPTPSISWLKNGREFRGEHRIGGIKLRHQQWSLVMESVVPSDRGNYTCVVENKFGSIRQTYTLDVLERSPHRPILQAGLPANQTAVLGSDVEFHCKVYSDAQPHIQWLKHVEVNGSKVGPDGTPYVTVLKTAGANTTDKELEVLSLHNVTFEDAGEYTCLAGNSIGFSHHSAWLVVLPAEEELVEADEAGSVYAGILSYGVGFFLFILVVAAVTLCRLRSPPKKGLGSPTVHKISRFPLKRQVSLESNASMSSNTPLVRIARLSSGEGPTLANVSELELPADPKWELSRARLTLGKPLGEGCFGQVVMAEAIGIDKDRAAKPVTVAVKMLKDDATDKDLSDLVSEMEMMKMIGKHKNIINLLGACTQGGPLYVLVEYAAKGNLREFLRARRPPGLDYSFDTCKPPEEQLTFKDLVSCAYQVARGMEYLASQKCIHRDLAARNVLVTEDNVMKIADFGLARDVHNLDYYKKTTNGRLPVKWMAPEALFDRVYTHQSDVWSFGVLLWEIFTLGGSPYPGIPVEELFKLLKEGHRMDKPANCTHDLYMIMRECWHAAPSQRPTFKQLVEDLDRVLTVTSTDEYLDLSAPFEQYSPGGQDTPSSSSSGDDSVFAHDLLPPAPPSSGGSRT
# Sequence of Ba/F3-KDR-transfected cells (P35968 whole entry, change not shown): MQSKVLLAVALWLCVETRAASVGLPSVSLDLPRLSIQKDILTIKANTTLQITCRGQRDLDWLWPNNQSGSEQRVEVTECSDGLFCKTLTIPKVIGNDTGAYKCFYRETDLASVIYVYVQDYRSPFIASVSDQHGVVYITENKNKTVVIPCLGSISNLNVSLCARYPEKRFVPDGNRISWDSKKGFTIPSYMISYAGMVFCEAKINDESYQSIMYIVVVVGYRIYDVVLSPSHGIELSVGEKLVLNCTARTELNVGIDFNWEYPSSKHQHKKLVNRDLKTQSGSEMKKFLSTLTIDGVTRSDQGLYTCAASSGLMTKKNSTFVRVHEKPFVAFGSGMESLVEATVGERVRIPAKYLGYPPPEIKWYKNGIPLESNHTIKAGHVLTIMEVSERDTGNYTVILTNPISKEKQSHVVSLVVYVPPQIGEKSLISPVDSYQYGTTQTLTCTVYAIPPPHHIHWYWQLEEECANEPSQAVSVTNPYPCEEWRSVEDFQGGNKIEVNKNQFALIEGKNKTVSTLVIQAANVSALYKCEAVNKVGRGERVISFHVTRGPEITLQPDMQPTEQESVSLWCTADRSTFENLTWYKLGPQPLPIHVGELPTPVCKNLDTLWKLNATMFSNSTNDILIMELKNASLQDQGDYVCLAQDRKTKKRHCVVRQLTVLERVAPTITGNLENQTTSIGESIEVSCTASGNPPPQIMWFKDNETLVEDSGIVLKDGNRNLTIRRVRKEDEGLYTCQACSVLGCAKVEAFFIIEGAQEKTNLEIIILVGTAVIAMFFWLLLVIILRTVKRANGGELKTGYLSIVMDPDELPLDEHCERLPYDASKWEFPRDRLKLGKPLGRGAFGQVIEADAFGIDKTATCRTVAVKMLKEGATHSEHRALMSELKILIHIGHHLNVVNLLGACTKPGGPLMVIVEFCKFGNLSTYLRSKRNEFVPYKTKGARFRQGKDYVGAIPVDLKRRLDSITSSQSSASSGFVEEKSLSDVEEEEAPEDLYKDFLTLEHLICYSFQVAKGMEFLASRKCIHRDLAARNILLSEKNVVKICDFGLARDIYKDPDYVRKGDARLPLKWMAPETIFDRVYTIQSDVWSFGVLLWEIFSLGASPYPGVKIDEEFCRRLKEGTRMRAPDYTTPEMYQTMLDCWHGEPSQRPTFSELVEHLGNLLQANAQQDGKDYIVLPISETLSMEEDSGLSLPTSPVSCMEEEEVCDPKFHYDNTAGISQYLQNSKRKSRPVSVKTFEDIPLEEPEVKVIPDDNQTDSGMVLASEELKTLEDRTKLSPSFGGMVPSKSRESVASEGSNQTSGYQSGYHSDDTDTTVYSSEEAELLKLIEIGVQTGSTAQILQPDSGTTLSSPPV
BAF3-FGFR 3 (MIN IL3) 384 well pIC50 [1],BAF3-KDR (MIN IL3) 384 well pIC50 [2],BAF3-FLT3 (MIN IL3) 384 well pIC50 [3],melting point [°C],BAF3-FGFR 3 (MIN IL3) 96 well pIC50 [1],BAF3-KDR (MIN IL3) 96 well pIC50 [2],BAF3-FLT3 (MIN IL3) 96 well pIC50 [3],Structure (SMILES)
5.57,<5,<5,103,–,–,–,COc1cc(OC)cc(N(CCO)c2ccc3ncc(-c4ccnc(C(=O)NCCCN)c4)nc3c2)c1 [Compound 123]
5.51,<5,<5,110,–,–,–,COc1cc(OC)cc(N(CCCO)c2ccc3ncc(-c4ccnc(C(=O)NCCCN)c4)nc3c2)c1 [Compound 33]
5.1,<5,<5,60,5.66,5.36,5.31,COc1cc(OC)cc(N(CC2CC2)c2ccc3ncc(C#Cc4ccncc4)nc3c2)c1 [Compound 23]
<5,<5,<5,175,<5,–,<5,COc1cc(OC)cc(N(CC2CC2)c2ccc3ncc(-c4nccn4C)nc3c2)c1 [Compound 60]
~6.27,5.18,<5,135,–,–,–,COCCN(c1cc(OC)cc(OC)c1)c1ccc2ncc(-c3ccn(C)c3)nc2c1 [Compound 6]
5.53,<5,<5,154,–,–,–,COc1cc(OC)cc(N(CC2CC2)c2ccc3ncc(-n4cnc(CO)c4)nc3c2)c1 [Compound 105]
~6.54,5.335,<5.025,160,–,–,–,COc1cc(OC)cc(N(CCO)c2ccc3ncc(-c4ccc(N)nc4)nc3c2)c1 [Compound 106]
~7.09,5.82,5.17,144,–,–,–,COc1cc(OC)cc(N(CCNC(C)C)c2ccc3ncc(-c4ccc(N)nc4)nc3c2)c1 [Compound 17]
~7.03,5.53,5.14,118,–,–,–,COc1cc(OC)cc(N(CCNC(C)C)c2ccc3ncc(-c4ccncc4)nc3c2)c1 [Compound 12]
5.09,<5,<5,214,–,–,–,CNC(=O)OCCN(c1cc(OC)cc(OC)c1)c1ccc2ncc(-c3ccc(NC(=O)OC(C)(C)C)nc3)nc2c1 [Compound 80]
~5.63,<5,<5,98,–,–,–,CNC(=O)c1cc(-c2cnc3ccc(N(CCNCC(F)(F)F)c4cc(OC)cc(OC)c4)cc3n2)ccn1 [Compound 113]
5.13,<5,<5,176,–,–,–,CNC(=O)c1cc(-c2cnc3ccc(N(CCN4CCCC4=O)c4cc(OC)cc(OC)c4)cc3n2)ccn1 [Compound 25]
<5,<5,<5,140,<5,–,<5,COc1cc(OC)cc(N(CC2CC2)c2ccc3ncc(C(=O)NCc4ccc(F)cc4)nc3c2)c1 [Compound 101]
<5,<5,<5,168,<5,<5,<5,COc1cc(OC)cc(N(CC2CC2)c2ccc3ncc(-c4nnnn4C)nc3c2)c1 [Compound 83]

# — patent US10052320B2, “Substituted quinoxalines as FGFR kinase inhibitors” (ASTEX THERAPEUTICS LIMITED, priority 2011, dated 2018)
